ChEMBL document CHEMBL1121775, “Synthesis and antimalarial effects of N2-aryl-N4-[(dialkylamino)alkyl]- and N4-aryl-N2-[(dialkylamino)alkyl]-2,4-quinazolinediamines” (J Med Chem, 1981)
“And” between values parts separate entries of the source, which are not always exact repeats. Equal values may be shown once.

What was measured:
Plasmodium berghei [1] = assay: Antimalarial effect against trophozoite-induced Plasmodium berghei in mice (Mus musculus) at 320 mg/kg subcutaneous dose; format: functional
Mus musculus [2] = assay: Antimalarial effect against trophozoite-induced Plasmodium berghei in mice (Mus musculus) at dosage of 20 mg/kg after subcutaneous administration.; format: functional
Mus musculus [3] = assay: Number of mice cured at a dose of 640 mg/kg sc; format: functional; details: route subcutaneous
[4] = The ratio of SD90 of the quinine hydrochloride, to the SD90 of the test substance for the Dose of 22 mg/kg; format: functional
Plasmodium berghei [5] = assay: Antimalarial effect against trophozoite-induced Plasmodium berghei in mice (Mus musculus) after 40 mg/kg subcutaneous dose; format: functional
Plasmodium berghei [6] = assay: Antimalarial effect against trophozoite-induced Plasmodium berghei in mice (Mus musculus) at 160 mg/kg subcutaneous dose; format: functional
Plasmodium berghei [7] = assay: Antimalarial effect against trophozoite-induced Plasmodium berghei in mice (Mus musculus) at 80 mg/kg subcutaneous dose; format: functional
Plasmodium berghei [8] = assay: Antimalarial effect against trophozoite-induced Plasmodium berghei in mice (Mus musculus) after 20 mg/kg subcutaneous dose; format: functional
Plasmodium berghei [9] = assay: (§1) Antimalarial effect against trophozoite-induced Plasmodium berghei in mice (Mus musculus) at 640 mg/kg subcutaneous dose; format: functional
Plasmodium berghei [10] = assay: Antimalarial activity against trophozoite-induced Plasmodium berghei in mice (Mus musculus); format: functional
Mus musculus [11] = assay: Number of mice cured at a subcutaneous dose of 320 mg/kg.; format: functional
Mus musculus [12] = assay: Antimalarial effect against trophozoite induced Plasmodium berghei in mice (Mus musculus) at dosage of 40 mg/kg after subcutaneous administration; format: functional
[13] = The ratio of SD90 of the quinine hydrochloride, to the SD90 of the test substance for the Dose of 36 mg/kg; format: functional
Mus musculus [14] = assay: Antimalarial effect against trophozoite induced Plasmodium berghei in mice (Mus musculus) at dosage of 160 mg/kg after subcutaneous administration; No. of mice (Mus musculus) surviving after 60 days 2; format: functional
Plasmodium berghei [15] = assay: Antimalarial activity against trophozoite-induced Plasmodium berghei in mice (Mus musculus) at 160 mg/kg subcutaneous dose; format: functional
Mus musculus [16] = assay: Number of toxic deaths at a dose of 640 mg/kg; format: toxicity, organism-based; set-up: dose 640 mg/kg; details: in vivo
Mus musculus [17] = assay: Number of mice cured at a subcutaneous dose of 640 mg/kg.; format: functional
[18] = The ratio of SD90 of the quinine hydrochloride, to the SD90 of the test substance for the Dose of 155 mg/kg; format: functional
Mus musculus [19] = assay: Number of toxic deaths at a dose of 320 mg/kg; format: toxicity, organism-based; set-up: dose 320 mg/kg; details: in vivo
Mus musculus [20] = assay: Antimalarial effect against trophozoite-induced Plasmodium berghei in mice (Mus musculus) at dosage of 80 mg/kg after subcutaneous administration; format: functional
[21] = The ratio of SD90 of the quinine hydrochloride, to the SD90 of the test substance for the Dose of 45 mg/kg; format: functional
Mus musculus [22] = assay: Antimalarial effect against trophozoite-induced Plasmodium berghei in mice (Mus musculus) at dosage of 320 mg/kg after subcutaneous administration;; format: functional
Mus musculus [23] = assay: (§2) Number of toxic deaths at a dose of 160 mg/kg; format: toxicity, organism-based; set-up: dose 160 mg/kg; details: in vivo
Plasmodium berghei [24] = assay: as §1; format: functional; remark: listed apart in the source
[25] = The ratio of SD90 of the quinine hydrochloride, to the SD90 of the test substance for the Dose of 80 mg/kg; format: functional
[26] = The ratio of SD90 of the quinine hydrochloride, to the SD90 of the test substance for the Dose of 74.5 mg/kg; format: functional
[27] = The ratio of SD90 of the quinine hydrochloride, to the SD90 of the test substance for the Dose of >34 mg/kg; format: functional
Mus musculus [28] = assay: as §2; format: functional
[29] = The ratio of SD90 of the quinine hydrochloride, to the SD90 of the test substance for the Dose of 68 mg/kg; format: functional
Mus musculus [30] = assay: Antimalarial effect against trophozoite induced Plasmodium berghei in mice (Mus musculus) at dosage of 160 mg/kg after subcutaneous administration.; format: functional
Mus musculus [31] = assay: Antimalarial effect against trophozoite induced Plasmodium berghei in mice (Mus musculus) at dosage of 640 mg/kg after subcutaneous administration; No. of mice (Mus musculus) surviving after 60 days 2; format: functional

FC(F)(F)c1ccc(Nc2nc(NCCCN3CCCC3)c3cc(Cl)ccc3n2)cc1
MST (Plasmodium berghei [1]): 14.6 days | MST (Mus musculus [2]): 0.4 days | No. of survivals (Mus musculus [3]; 640 mg/kg): 2 and 3 | Ratio [4]: 3.4 | MST (Plasmodium berghei [5]): 0.4 days | MST (Plasmodium berghei [6]; 160 mg/kg): 4.6 days and 4 days | MST (Plasmodium berghei [7]): 1.6 days | MST (Plasmodium berghei [8]): 0.2 days | MST (Plasmodium berghei [9]; 640 mg/kg): 26.5 days and 23.3 days | SD90 (Plasmodium berghei [10]): 22 mg/kg/day | No. of survivals (Mus musculus [11]): 1

CCN1CCCC(Nc2nc(Nc3cc(Cl)cc(Cl)c3)nc3ccc(Cl)cc23)C1 (centres undefined)
MST (Plasmodium berghei [1]): 6.4 days | No. of survivals (Mus musculus [3]): 3 | MST (Mus musculus [12]): 0.4 days | Ratio [13]: 2.1 | MST (Plasmodium berghei [5]): 0.2 days | MST (Plasmodium berghei [6]): 1 days | MST (Plasmodium berghei [7]): 0.6 days | MST (Plasmodium berghei [8]): 0.2 days | MST (Plasmodium berghei [9]; 640 mg/kg): 7.8 days and 4.8 days | SD90 (Plasmodium berghei [10]): 36 mg/kg/day

CCN(CC)Cc1cc(Nc2nc(NC3CCC(N(C)C)CC3)c3ccccc3n2)ccc1OC (centres undefined)
MST (Plasmodium berghei [5]; 40 mg/kg): 7.7 days and 7.2 days | MST (Mus musculus [14]): 16.3 days | MST (Plasmodium berghei [8]): 7.5 days | MST (Plasmodium berghei [15]): 13 days | SD90 (Plasmodium berghei [10]): 155 mg/kg/day | No. of toxic deaths (Mus musculus [16]): 5 | No. of cured (Mus musculus [17]): 3 | Ratio [18]: 0.5 | No. of toxic deaths (Mus musculus [19]): 5 | MST (Mus musculus [20]): 13 days

CCOc1ccc(Nc2nc(NCCN(CC)CC)c3cc(Cl)ccc3n2)cc1CN(CC)CC
Ratio [21]: 1.6 | MST (Plasmodium berghei [5]): 0.8 days | MST (Plasmodium berghei [7]): 3.2 days | MST (Plasmodium berghei [8]): 0.2 days | MST (Plasmodium berghei [15]): 4.3 days | MST (Mus musculus [22]): 5.8 days | SD90 (Plasmodium berghei [10]): 45 mg/kg/day | No. of toxic deaths (Mus musculus [16]): 5 | No. of toxic deaths (Mus musculus [19]): 4 | No. of toxic deaths (Mus musculus [23]): 1

Clc1cc(Cl)cc(Nc2nc(NCCN3CCCC3)c3ccccc3n2)c1
MST (Plasmodium berghei [1]): 5.9 days | MST (Plasmodium berghei [5]; 40 mg/kg): 0.9 days and 1.3 days | MST (Plasmodium berghei [6]; 160 mg/kg): 3.5 days and 4.1 days | MST (Plasmodium berghei [7]): 1.7 days | MST (Plasmodium berghei [8]): 0.5 days | SD90 (Plasmodium berghei [10]): 80 mg/kg/day | MST (Plasmodium berghei [24]; 640 mg/kg): 10.7 days and 10.3 days | Ratio [25]: 0.9

C=C[C@H]1CN2CC[C@H]1C[C@H]2[C@H](O)c1ccnc2ccc(OC)cc12 [QUININE]
Ratio [26]: 1 | MST (Plasmodium berghei [1]): 3.2 days | MST (Plasmodium berghei [5]): 1 days | MST (Plasmodium berghei [6]): 2 days | MST (Plasmodium berghei [7]): 1.4 days | MST (Plasmodium berghei [8]): 0.2 days | SD90 (Plasmodium berghei [10]): 74.5 mg/kg/day | MST (Plasmodium berghei [24]): 5.4 days

CCOc1ccc(Nc2nc(NCCN(CC)CC)c3ccc(Cl)cc3n2)cc1CN1CCCC1
SD90 (Plasmodium berghei [10]): >34 mg/kg/day | Ratio [27]: <2.2

CCN(CC)CCNc1nc(NCc2ccc(Cl)c(Cl)c2)nc2ccccc12
MST (Plasmodium berghei [5]): 0.7 days | No. of toxic deaths (Mus musculus [28]): 1 | MST (Plasmodium berghei [15]): 0.9 days | No. of toxic deaths (Mus musculus [16]): 5

Clc1ccc(Nc2nc(NCCN3CCCC3)c3ccccc3n2)cc1
MST (Plasmodium berghei [1]): 18.2 days | Ratio [29]: 1.1 | MST (Plasmodium berghei [5]; 40 mg/kg): 0.7 days and 1.1 days | MST (Plasmodium berghei [6]): 6.7 days | MST (Plasmodium berghei [7]): 1.1 days | MST (Plasmodium berghei [8]): 0.1 days | MST (Plasmodium berghei [9]): 25.4 days | MST (Mus musculus [30]): 6.1 days | SD90 (Plasmodium berghei [10]): 68 mg/kg/day | No. of cured (Mus musculus [17]; 640 mg/kg): 3 and 1 | MST (Mus musculus [31]): 24.6 days
